Here are results for 25 molecules from PubChem BioAssay AID330 (DTP/NCI, 2004).

The subject of the experiment is P388 leukemia ip, CD2F1 mice, survival T/C. Briefly: NCI In Vivo Anticancer Drug Screen. Data for tumor model P388 Leukemia (intraperitoneal) in CD2F1 (CDF1) mice. Particulars: endpoint: median survival time, higher = longer survival. An outline of the steps:
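Mice carrying the transplanted tumor received test compound or vehicle. Survival was recorded in each group, and the value is the treated-group measurement divided by that of the vehicle-treated control group.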

[1] abbreviates: dose: 6.25 mg/kg/injection, schedule: Q01DX009 (ip), vehicle: Klucel (hydroxypropylcellulose) (HPC).
Setting [2] is: dose: 12.5 mg/kg/injection, schedule: Q01DX009 (ip), vehicle: Klucel (hydroxypropylcellulose) (HPC).
The mark [3] stands for this setting: dose: 25.0 mg/kg/injection, schedule: Q01DX009 (ip), vehicle: Klucel (hydroxypropylcellulose) (HPC).
[4] abbreviates: dose: 50.0 mg/kg/injection, schedule: Q01DX009 (ip), vehicle: Klucel (hydroxypropylcellulose) (HPC).
[5] abbreviates: dose: 100.0 mg/kg/injection, schedule: Q01DX009 (ip), vehicle: Klucel (hydroxypropylcellulose) (HPC).
Where [6] appears, read: dose: 200.0 mg/kg/injection, schedule: Q01DX009 (ip), vehicle: Klucel (hydroxypropylcellulose) (HPC).
[7] abbreviates: dose: 200.0 mg/kg/injection, schedule: Q01DX009 (ip), vehicle: saline with Tween-80.
[8] abbreviates: dose: 50.0 mg/kg/injection, schedule: Q01DX009 (ip), vehicle: saline.
Where [9] appears, read: dose: 100.0 mg/kg/injection, schedule: Q01DX009 (ip), vehicle: saline.
[10] abbreviates: dose: 200.0 mg/kg/injection, schedule: Q01DX009 (ip), vehicle: saline.
The mark [11] stands for this setting: dose: 100.0 mg/kg/injection, schedule: Q01DX001 (ip), vehicle: Klucel (hydroxypropylcellulose) (HPC).
[12] abbreviates: dose: 200.0 mg/kg/injection, schedule: Q01DX001 (ip), vehicle: Klucel (hydroxypropylcellulose) (HPC).
[13] abbreviates: dose: 50.0 mg/kg/injection, schedule: Q01DX009 (ip), vehicle: water.
Where [14] appears, read: dose: 100.0 mg/kg/injection, schedule: Q01DX009 (ip), vehicle: water.
The mark [15] stands for this setting: dose: 200.0 mg/kg/injection, schedule: Q01DX009 (ip), vehicle: water.
The mark [16] stands for this setting: dose: 50.0 mg/kg/injection, schedule: Q01DX005 (ip), vehicle: Klucel (hydroxypropylcellulose) (HPC).
The mark [17] stands for this setting: dose: 100.0 mg/kg/injection, schedule: Q01DX005 (ip), vehicle: Klucel (hydroxypropylcellulose) (HPC).
Setting [18] is: dose: 200.0 mg/kg/injection, schedule: Q01DX005 (ip), vehicle: Klucel (hydroxypropylcellulose) (HPC).
The mark [19] stands for this setting: dose: 50.0 mg/kg/injection, schedule: Q01DX005 (ip), vehicle: saline.
Setting [20] is: dose: 100.0 mg/kg/injection, schedule: Q01DX005 (ip), vehicle: saline.

Several values for one entry are separate records, joined by “and”; a condition that tells them apart may be missing. Equal values may be shown once. Inconclusive results and toxic doses are left out.

For `N#CC1(C#N)C2C=CC(C3CC=CC32)C1(C#N)C#N` (stereo not drawn), the T/C is 106 % of control (dose: 3.13 mg/kg/injection, schedule: Q01DX009 (ip), vehicle: Klucel (hydroxypropylcellulose) (HPC)); 98 % of control under setting [1]; 110 % of control under setting [2]; 108 % of control under setting [3].

Consider `O=[N+]([O-])c1ccc(N/N=C/c2ccc(Cl)cc2)nc1`, for which the T/C is 87 % of control under setting [1]; 89 % of control under setting [2]; 91 % of control under setting [3]; 91 % of control under setting [4]; 98 % of control under setting [5]; 105 % of control and 89 % of control under setting [6]. Moreover, the T/C under setting [7] was 91 % of control and 93 % of control; the T/C (dose: 400.0 mg/kg/injection, schedule: Q01DX009 (ip), vehicle: saline with Tween-80) is 112 % of control.

Regarding `C[P+]12CN3CN(CN(C3)C1)C2`, the T/C runs as follows: under setting [8], 107 % of control; under setting [9], 107 % of control; under setting [10], 101 % of control.

Consider `CN(CCO)C1=C(N2CC2)C(=O)C(N(C)CCO)=C(N2CC2)C1=O`, for which the T/C was 175 % of control and 194 % of control (dose: 0.4 mg/kg/injection, schedule: Q01DX009 (ip), vehicle: saline); 194 % of control and 245 % of control (dose: 0.8 mg/kg/injection, schedule: Q01DX009 (ip), vehicle: saline); 119 % of control and 262 % of control (dose: 1.6 mg/kg/injection, schedule: Q01DX009 (ip), vehicle: saline).

On to `Cc1n[nH]c2ccc([N+](=O)[O-])cc2c1=O`, for which the T/C reads like this: (dose: 6.25 mg/kg/injection, schedule: Q01DX009 (ip), vehicle: saline with Tween-80) 100 % of control; (dose: 12.5 mg/kg/injection, schedule: Q01DX009 (ip), vehicle: saline with Tween-80) 100 % of control; (dose: 25.0 mg/kg/injection, schedule: Q01DX009 (ip), vehicle: saline with Tween-80) 90 % of control; (dose: 50.0 mg/kg/injection, schedule: Q04DX003 (ip), vehicle: saline with Tween-80) 100 % of control; (dose: 100.0 mg/kg/injection, schedule: Q04DX003 (ip), vehicle: saline with Tween-80) 95 % of control; (dose: 200.0 mg/kg/injection, schedule: Q04DX003 (ip), vehicle: saline with Tween-80) 100 % of control.

As to `NS(=O)(=O)c1cccnc1Nc1cccc(Cl)c1Cl`, the T/C is, setting by setting: under setting [8], 100 % of control; under setting [9], 100 % of control; under setting [10], 96 % of control.

For the molecule `CC(=O)c1ccc(OCc2ccccc2)cc1OCc1ccccc1`, the T/C by setting is: under setting [8], 97 % of control; under setting [9], 100 % of control; under setting [10], 98 % of control.

On to `CCCCC[CH2][Ge]([CH2]CCCCC)([CH2]CCCCC)[O]C(C)=O`, for which the T/C by setting is: (dose: 50.0 mg/kg/injection, schedule: Q01DX001 (ip), vehicle: Klucel (hydroxypropylcellulose) (HPC)) 100 % of control and 107 % of control; under setting [11], 101 % of control and 106 % of control; under setting [12], 104 % of control and 115 % of control; (dose: 400.0 mg/kg/injection, schedule: Q01DX001 (ip), vehicle: Klucel (hydroxypropylcellulose) (HPC)) 120 % of control.

Take `CC1=CC(OC2CCCCO2)CC(C)(C)C1` (stereo not drawn): the T/C was 100 % of control under setting [8], 99 % of control under setting [9] and 101 % of control under setting [10].

For the molecule `C=CCC(=C)C(=O)OC`, the T/C (dose: 12.5 mg/kg/injection, schedule: Q01DX009 (ip), vehicle: water) was 103 % of control; the T/C (dose: 25.0 mg/kg/injection, schedule: Q01DX009 (ip), vehicle: water) was 104 % of control; the T/C under setting [13] is 102 % of control; the T/C under setting [14] was 102 % of control; the T/C under setting [15] is 103 % of control.

As for `O=C1C=Cn2cc(-c3ccccc3)c(-c3ccccc3)c21`, the T/C reads like this: under setting [16], 96 % of control; under setting [17], 97 % of control; under setting [18], 95 % of control.

On to `[N-]=[N+]=Nc1ccnc2cc(F)ccc12`, for which the T/C was 96 % of control (dose: 60.0 mg/kg/injection, schedule: Q01DX005 (ip), vehicle: saline with Tween-80); 104 % of control (dose: 120.0 mg/kg/injection, schedule: Q01DX005 (ip), vehicle: saline with Tween-80); 95 % of control (dose: 240.0 mg/kg/injection, schedule: Q01DX005 (ip), vehicle: saline with Tween-80).

Consider `CCCCCCC(=O)CC(SCC)c1ccc(Cl)c(Cl)c1` (stereo not drawn), for which the T/C was 100 % of control (dose: 50.0 mg/kg/injection, schedule: Q01DX009 (ip), vehicle: saline with Tween-80); 97 % of control (dose: 100.0 mg/kg/injection, schedule: Q01DX009 (ip), vehicle: saline with Tween-80); 106 % of control under setting [7].

`NCCCN1CCCC1`: the T/C was 95 % of control under setting [19] and 105 % of control under setting [20].

On to `Cn1c(=O)ccc2c(=O)c3ccccc3oc21`, for which the T/C is, setting by setting: (dose: 100.0 mg/kg/injection, schedule: Q04DX002 (ip), vehicle: saline with Tween-80) 100 % of control; (dose: 200.0 mg/kg/injection, schedule: Q04DX002 (ip), vehicle: saline with Tween-80) 110 % of control; (dose: 400.0 mg/kg/injection, schedule: Q04DX002 (ip), vehicle: saline with Tween-80) 107 % of control.

Take `Nc1nc2ccccc2n1C(=O)C(F)(F)F`: the T/C was 98 % of control under setting [11] and 116 % of control under setting [12].

Take `C/C(=N\NS(=O)(=O)c1ccc(C)cc1)c1c(C)noc1C`: the T/C by setting is: under setting [4], 94 % of control; under setting [5], 99 % of control; under setting [6], 100 % of control.

For the molecule `O=C(CC(c1ccccc1)C1c2ccccc2C(=O)c2ccccc21)c1ccccc1` (stereo not drawn), the T/C is 87 % of control under setting [4]; 93 % of control under setting [5]; 92 % of control under setting [6]; 88 % of control (dose: 400.0 mg/kg/injection, schedule: Q01DX009 (ip), vehicle: Klucel (hydroxypropylcellulose) (HPC)).

`CN(C)CC1CC1N1c2ccccc2Sc2ccc(Cl)cc21` (stereo not drawn): the T/C reads like this: under setting [3], 99 % of control; under setting [4], 101 % of control and 112 % of control; under setting [5], 101 % of control and 112 % of control.

Regarding `CC(CCO)CCC(Br)C(C)(C)Br` (stereo not drawn), the T/C by setting is: under setting [19], 103 % of control; under setting [20], 105 % of control; (dose: 200.0 mg/kg/injection, schedule: Q01DX005 (ip), vehicle: saline) 100 % of control.

For `Cc1nnc(N/N=C/c2ccccc2)n1/N=C\c1ccccc1`, the T/C (dose: 100.0 mg/kg/injection, schedule: Q04DX003 (ip), vehicle: Klucel (hydroxypropylcellulose) (HPC)) is 101 % of control; the T/C (dose: 200.0 mg/kg/injection, schedule: Q04DX003 (ip), vehicle: Klucel (hydroxypropylcellulose) (HPC)) is 100 % of control; the T/C (dose: 400.0 mg/kg/injection, schedule: Q04DX003 (ip), vehicle: Klucel (hydroxypropylcellulose) (HPC)) is 105 % of control.

Take `CC(C)(C)Oc1ccc(CC(NC(=O)OCC2c3ccccc3-c3ccccc32)C(=O)O)cc1` (stereo not drawn): the T/C (dose: 25.0 mg/kg/injection, schedule: Q01DX005 (ip), vehicle: Klucel (hydroxypropylcellulose) (HPC)) is 107 % of control; the T/C under setting [16] is 107 % of control and 109 % of control; the T/C under setting [17] is 120 % of control; the T/C under setting [18] was 104 % of control and 120 % of control.

On to `CCN(CC)C(=O)Nc1ccc(OCC(O)CNC(C)(C)C)c(C(C)=O)c1` (stereo not drawn), for which the T/C under setting [13] was 114 % of control, the T/C under setting [14] was 102 % of control and the T/C under setting [15] was 105 % of control.

For the molecule `CCOC(=O)C1=C(C)O/C(=C/c2ccco2)C1=O`, the T/C is, setting by setting: under setting [3], 103 % of control; under setting [4], 109 % of control; under setting [5], 110 % of control and 111 % of control.

For the molecule `Cc1c2ccncc2c(CNC(=O)C(N)Cc2c[nH]c3ccccc23)c2c3ccccc3n(C)c12` (stereo not drawn), the T/C by setting is: (dose: 6.25 mg/kg/injection, schedule: Q04DX002 (ip), vehicle: saline with Tween-80) 108 % of control; (dose: 12.5 mg/kg/injection, schedule: Q04DX002 (ip), vehicle: saline with Tween-80) 112 % of control; (dose: 25.0 mg/kg/injection, schedule: Q04DX002 (ip), vehicle: saline with Tween-80) 115 % of control; (dose: 50.0 mg/kg/injection, schedule: Q04DX002 (ip), vehicle: saline with Tween-80) 117 % of control.
